Experimental findings from ChEMBL document CHEMBL3580540, “N1-linked melatonin dimers as bivalent ligands targeting dimeric melatonin receptors” (Medchemcomm, 2014) are described below.

Holding throughout (type): cell-based
The nature of assay [1]: Displacement of 2-[125I]-iodomelatonin from human MT2 receptor expressed in CHO cells by Gamma counting.
Assay [2] in a line: Displacement of 2-[125I]-iodomelatonin from human MT1 receptor expressed in CHO cells by Gamma counting.
Assay [3] relates to HEK-293T. The assay is described as follows: Binding affinity to Rluc-tagged MT1/YFP-tagged MT2 (unknown origin) transfected in HEK293T cells assessed as bioluminescence resonance energy transfer ratio at 10 uM after 10 mins by lumino/fluorometer (reference value: 0.254 +/- 0.035). As to conditions: Homo sapiens.
Assay [4] deals with HEK-293T. In words: Binding affinity to Rluc-tagged MT2/YFP-tagged MT1 (unknown origin) transfected in HEK293T cells assessed as bioluminescence resonance energy transfer ratio at 10 uM after 10 mins by lumino/fluorometer (reference value: 2.300 +/- 0.777). As to conditions: Homo sapiens.
Assay [5] deals with HEK-293T. In words: Binding affinity to Rluc-tagged MT1/YFP-tagged MT1 (unknown origin) transfected in HEK293T cells assessed as bioluminescence resonance energy transfer ratio at 10 uM after 10 mins by lumino/fluorometer (reference value: 0.092 +/- 0.007). As to conditions: Homo sapiens.
Assay [6] relates to HEK-293T. The assay is described as follows: Binding affinity to Rluc-tagged MT2/YFP-tagged MT2 (unknown origin) transfected in HEK293T cells assessed as bioluminescence resonance energy transfer ratio at 10 uM after 10 mins by lumino/fluorometer (reference value: 1.468 +/- 0.560). As to conditions: Homo sapiens.

Regarding `CCCCCCNC(=O)CCCCn1cc(CCNC(C)=O)c2cc(OC)ccc21`, the pKi in assay [1] worked out at 6.41; in assay [2] it was 5.79.

As to `COc1ccc2c(c1)c(CCNC(C)=O)cn2CCCCC(=O)NCCCCCCCCCCCNC(=O)CCCCn1cc(CCNC(C)=O)c2cc(OC)ccc21`, the figures for the negative logarithm of the Ki (pKi) in assay [1] and in assay [2] were 6.54 and 6.11, respectively. The Ratio with HEK-293T [3] came out at 0.217; with HEK-293T [4], 10.1; in the assay on HEK-293T [5] it was 0.078; in the assay with HEK-293T [6], 0.901.

On to `COc1ccc2c(c1)c(CCNC(C)=O)cn2CCCCC(=O)NCCCCCCCCCCCCNC(=O)CCCCn1cc(CCNC(C)=O)c2cc(OC)ccc21`, for which the pKi in assay [1] is listed as 6.67; in assay [2], 6.08. Further, the Ratio amounted to 0.2 in the assay on HEK-293T [3], 6.81 in the assay with HEK-293T [4], 0.062 with HEK-293T [5] and 1.15 in the assay with HEK-293T [6].

Consider `COc1ccc2c(c1)c(CCNC(C)=O)cn2CC(=O)NCCCCCCCCCCCNC(=O)Cn1cc(CCNC(C)=O)c2cc(OC)ccc21`, for which the figures for the pKi in assay [1] and in assay [2] were 6.53 and 5.12, respectively.

Take `COc1ccc2c(c1)c(CCNC(C)=O)cn2CCCCC(=O)NCCCCCCNC(=O)CCCCn1cc(CCNC(C)=O)c2cc(OC)ccc21`: the pKi amounted to 5.9 in assay [1] and 5.64 in assay [2].

With `COc1ccc2c(c1)c(CCNC(C)=O)cn2CC(=O)NCCCCCCCCCCNC(=O)Cn1cc(CCNC(C)=O)c2cc(OC)ccc21`, the figures for the negative logarithm of the Ki (pKi) in assay [1] and in assay [2] were 7.34 and 6.37, respectively.

Consider `COc1ccc2c(c1)c(CCNC(C)=O)cn2CCCCC(=O)NCCCCCCCNC(=O)CCCCn1cc(CCNC(C)=O)c2cc(OC)ccc21`, for which the negative-log Ki (pKi) was 5.93 in assay [1] and 6.24 in assay [2].

For `COc1ccc2c(c1)c(CCNC(C)=O)cn2CCCCC(=O)NCCCCCCCCCCNC(=O)CCCCn1cc(CCNC(C)=O)c2cc(OC)ccc21`, the results for the pKi in assay [1] and in assay [2] were 6.62 and 6.33, respectively. Moreover, the Ratio amounted to 0.223 in the assay on HEK-293T [3], 9.28 with HEK-293T [4], 0.098 with HEK-293T [5] and 1.39 in the assay with HEK-293T [6].

Regarding `COc1ccc2c(c1)c(CCNC(C)=O)cn2CC(=O)NCCCCCCCCCNC(=O)Cn1cc(CCNC(C)=O)c2cc(OC)ccc21`, the pKi in assay [1] worked out at 4.93; in assay [2], 4.83.

As for `COc1ccc2c(c1)c(CCNC(C)=O)cn2CCCCC(=O)NCCCCCCCCNC(=O)CCCCn1cc(CCNC(C)=O)c2cc(OC)ccc21`, the pKi in assay [1] came out at 6.74; in assay [2] it was 6.17.

Take `COc1ccc2c(c1)c(CCNC(C)=O)cn2CC(=O)NCCCCCCCCCCCCNC(=O)Cn1cc(CCNC(C)=O)c2cc(OC)ccc21`: the pKi is 7.02 in assay [1] and 6.47 in assay [2].

Take `COc1ccc2c(c1)c(CCNC(C)=O)cn2CCCCC(=O)NCCCCCCCCCNC(=O)CCCCn1cc(CCNC(C)=O)c2cc(OC)ccc21`: the pKi in assay [1] is 6.79; in assay [2], 6.23.
